Where “and” joins values, the source holds several entries; their conditions need not be identical. Identical values can stand only once.
Each molecule was assayed against T1, Cathepsin K (Oryctolagus cuniculus, UniProt P43236) (assay: In Vitro Enzyme Inhibition Assay and Bone-Resorption Assay). Settings: pH 5.5; 22 °C.
T1 sequence (P43236 whole entry): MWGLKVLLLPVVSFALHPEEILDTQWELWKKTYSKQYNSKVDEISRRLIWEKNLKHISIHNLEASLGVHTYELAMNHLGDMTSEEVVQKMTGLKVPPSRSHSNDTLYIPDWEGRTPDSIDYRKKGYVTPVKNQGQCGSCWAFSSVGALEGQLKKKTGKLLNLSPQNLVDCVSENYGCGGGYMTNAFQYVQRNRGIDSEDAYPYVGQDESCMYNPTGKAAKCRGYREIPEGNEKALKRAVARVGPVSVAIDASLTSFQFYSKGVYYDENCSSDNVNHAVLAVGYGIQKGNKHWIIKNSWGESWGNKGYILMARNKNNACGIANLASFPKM
Procedure: Prior to the addition of substrate, different concentrations of the inhibitor ranging from 100 uM to 0.2 nM were preincubated for 15 min with enzyme to allow the establishment of the enzyme-inhibitor complex. The proteolytic cleavage of N-acyl aminocoumarins by cathepsins was conducted in 96-well plate format and the plate read using a Spectramax (Molecular Devices) plate reader. The excitation wavelength was 355 nm and the emission wavelength was 460 nm for peptidyl-AMC substrates. The percent inhibition of the reaction was calculated from a control reaction containing only vehicle. IC50 curves were generated by fitting percent inhibition values to a four parameter logistic model (SOFTMAX PRO, Molecular Devices). EC50/IC50 values were obtained from bone-resorption assay. The long bones were aseptically isolated from a 10-day-old New Zealand White […] (Covance Research Products, Denver, PA) and the soft tissue removed.

Row | SMILES | EC50
1 | CSc1ccc(-c2c([C@@H]3CCC(F)(F)C[C@H]3C(=O)NCC#N)nnn2Cc2ccccc2)cc1 [(1R,2R)-2-{1-benzyl-5-[4-(methylsulfanyl)phenyl]-1H-1,2,3-triazol-4-yl}-N-(cyanomethyl)-5,5-difluorocyclohexane-1-carboxamide] | 33 nM
2 | CSc1ccc(-c2c[nH]c(=O)cc2[C@@H]2CCC(F)(F)C[C@H]2C(=O)NCC#N)cc1 [(1R,2R)-N-(cyanomethyl)-5,5-difluoro-2-{5-[4-(methylsulfanyl)phenyl]-2-oxo-1,2-dihydropyridin-4-yl}cyclohexane-1-carboxamide] | 20 nM
3 | CSc1ccc(-c2nc(C)sc2[C@@H]2CCC(F)(F)C[C@H]2C(=O)NCC#N)cc1 [(1R,2R)-N-(cyanomethyl)-5,5-difluoro-2-{2-methyl-4-[4-(methylsulfanyl)phenyl]-1,3-thiazol-5-yl}cyclohexane-1-carboxamide] | 17 nM
4 | CSc1ccc(-c2cn(C)nc2[C@@H]2CCC(F)(F)C[C@H]2C(=O)NCC#N)cc1 | 41 nM
5 | N#CCNC(=O)[C@@H]1CC(F)(F)CC[C@H]1c1cnccc1-c1ccc(SCF)cc1 [(1R,2R)-N-(cyanomethyl)-5,5-difluoro-2-(4-{4-[(fluoromethyl)sulfanyl]phenyl}pyridin-3-yl)cyclohexane-1-carboxamide] | 58 nM
6 | CSc1ccc(-c2c([C@@H]3CCC(F)(F)C[C@H]3C(=O)NCC#N)cc[nH]c2=O)cc1 [(1R,2R)-N-(cyanomethyl)-5,5-difluoro-2-{3-[4-(methylsulfanyl)phenyl]-2-oxo-1,2-dihydropyridin-4-yl}cyclohexane-1-carboxamide] | 84 nM

Now from value to molecule:

Row | EC50 | SMILES
7 | 75 nM | CSc1ccc(-c2c[n+]([O-])ccc2[C@@H]2CCC(F)(F)C[C@H]2C(=O)NCC#N)cc1 [4-[(1R,2R)-2-[(cyanomethyl)carbamoyl]-4,4-difluorocyclohexyl]-3-[4-(methylsulfanyl)phenyl]-1-pyridin-1-olate]
8 | 10 nM | CSc1ccc(-c2ncccc2[C@@H]2CCC(F)(F)C[C@H]2C(=O)NCC#N)cc1 [(1R,2R)-N-(cyanomethyl)-5,5-difluoro-2-{2-[4-(methylsulfanyl)phenyl]pyridin-3-yl}cyclohexane-1-carboxamide]
9 | 16 nM and 38 nM | CSc1ccc(-c2ccccc2[C@@H]2CCC(F)(F)C[C@H]2C(=O)NCC#N)cc1 [(1R,2R)-N-(cyanomethyl)-5,5-difluoro-2-{2-[4-(methylsulfanyl)phenyl]phenyl}cyclohexane-1-carboxamide]
10 | 18 nM | CSc1ccc(-c2cnccc2[C@@H]2CCC(F)(F)C[C@H]2C(=O)NCC#N)cc1 [(1R,2R)-N-(cyanomethyl)-5,5-difluoro-2-{3-[4-(methylsulfanyl)phenyl]pyridin-4-yl}cyclohexane-1-carboxamide]

Reference: BindingDB's records for doi:10.1016/j.bmcl.2007.03.028 (Merck Frosst Centre For Therapeutic Research, 2007)
